“Also recorded” adds a separate entry of the source. Blank lines part the entries; values can stand above or below the compound they belong to.
Experiments:
recombinant rat DGKα [1] = biological target: T1, recombinant rat DGKα (Rattus norvegicus, UniProt P51556); test: ADP-Glo luminescent ADP detection assay; assay type: cell-based; settings: 1 hr, HEK293T cells expressing recombinant rat DGKα
T1 construct: expressed in transfected cells; host or cells: HEK293T
Experimental: (§1) T-cells require endogenous H2S to activate and proliferate. Cystathionine β-synthase (CBS) and Cystathionine γ-lyase (CSE) are two proteins responsible for generating H2S, and previous studies have shown how knockdown of these proteins can drastically impair T-cell function. We initially tested if DGKα was affected by sulfur donors in a recombinant system. Thus, HEK293T cells expressing recombinant rat DGKα were treated with Na2S4 for 1 hr for luminescent ADP detection assay (ADP-Glo) and ABPP experiments. The activity of the rat isoform in our ADP-Glo™ assay (Promega Corporation) decreased by 40% at 10 μM 30% at 1 μM of the sulfur donor.

recombinant rat DGKα [2] = biological target: T1, recombinant rat DGKα; test: Competitive ABPP gel assay using TH071; assay type: binding; settings: Na2S4 1 hr, TH071 as probe
Experimental: (§2) Continuing with the benzimidazole azetidine, we appended different alkyne tags via reductive amination or HATU coupling to observe the effects of N-substituents on the ring (Scheme 1 above). Soluble and membrane HEK293T cell proteomes were treated with 25 μM of azetidine compounds for one hour before addition of rhodamine via CLICK chemistry, i.e., copper catalyzed azide-alkyne cycloaddition (CuAAC). After the proteins were resolved via SDS-PAGE, we discovered a robust and unique binding profile from the azetidine probes (FIG. 2 and FIG. 3).
as §1

DGK [3] = test: Substrate assay (ADP-Glo) on second DGK isoform; assay type: cell-based; settings: tested in a similar manner as DGKα
[4] = Evaluation of ring-opening under biological conditions with cysteine (LC-MS/MS); assay type: physicochemical; settings: cysteine 1.5 mmol eq., 37° C., 24 hrs, PBS and DMF (5:1)
Experimental: (§3) An exemplary azetidine compound (RLM207) was dissolved in deuterated PBS with either cysteine (1.5 mmol eq.) or glutathione (1.5 mmol eq.), and incubated at 37° C. for 24 hrs in phosphate-buffered saline and DMF (5:1). To observe if any products formed between the RLM207 and biological nucleophiles, high-resolution LC-MS/MS was used to analyze the two reactions. Samples were desalted on a STAGE-Tip C^18 column and dissolved in mobile phase A (0.1% formic acid) for LC-MS/MS analysis. […] Thus, at 24.46 min, there appeared a peak with an M+1 mass of 547.2336 m/z corresponding to the covalent product.
(§4) Ring-opening reactions of azetidines typically employ harsh conditions that are not amenable to biological samples, such as strong acids and organic solvents^12-15. Our discovery was the first indication that azetidines form covalent products with a tripeptide.

[5] = Evaluation of ring-opening under biological conditions with glutathione (LC-MS/MS); assay type: physicochemical; settings: glutathione 1.5 mmol eq., 37° C., 24 hrs, PBS and DMF (5:1), MS2
Experimental: as §3, §4

[6] = tested on: Soluble and membrane HEK293T cell proteomes; test: Gel assay (gel ABPP): protein binding, rhodamine CuAAC, SDS-PAGE fluorescence; design: species or system human; settings: 25 μM, one hour
Experimental: (§5) FIG. 2. Structure activity relationship studies of some azetidine compounds of the present disclosure and their reactivity. Cell lysates were incubated with the indicate azetidine compounds for 1 hr for gel experiments and 3 hrs for LC-MS/MS experiments. Rhodamine or desthiobiotin tags were appended to the probe for gel and mass spectrometry experiments, respectively, by copper-catalyzed azide-alkyne cycloaddition, i.e., CLICK chemistry.
as §2

HEK lysates = test: LC-MS/MS identification of azetidine-tagged proteins/peptides (desthiobiotin azide enrichment); assay type: binding, human
Experimental: as §5
Our initial attempts to enrich for azetidine-bound peptides were not optimal when we treated HEK lysates with only 25 μM of azetidine compound, illustrated by TH071. While we could easily observe protein bands by gel fluorescence, we were not saturating the proteome.
(§6) Next, isotopically labeled proteins were obtained through routine procedures using labeled amino acids, and the proteins were then reacted with TH071 for 3 hrs before click chemistry with desthiobiotin azide for 2 hours. Proteins were digested by trypsin into peptides before azetidine-bound peptides were enriched via affinity chromatography. Eluted peptides were analyzed by high resolution LC-MS/MS using a top 10 data-dependent acquisition (DDA). An added mass of 631.3858 Da was used to search for azetidine modifications to amino acid residues. Peptides were quantified between samples by measuring the integration of MS1 peaks between heavy and light peptides, and were sequenced by manual verification of MS2 fragmentation spectra. […] Sulfhydration modifications are a form of cysteine oxidation after the reaction with H2S to form a persulfide (S—SH).

[7] = biological target: recombinant mammalian DGKα (Rattus norvegicus, UniProt P51556); test: LC-MS/MS enrichment of azetidine-bound peptides on recombinant DGKα; assay type: binding
Chain of recombinant mammalian DGKα (P51556 whole entry): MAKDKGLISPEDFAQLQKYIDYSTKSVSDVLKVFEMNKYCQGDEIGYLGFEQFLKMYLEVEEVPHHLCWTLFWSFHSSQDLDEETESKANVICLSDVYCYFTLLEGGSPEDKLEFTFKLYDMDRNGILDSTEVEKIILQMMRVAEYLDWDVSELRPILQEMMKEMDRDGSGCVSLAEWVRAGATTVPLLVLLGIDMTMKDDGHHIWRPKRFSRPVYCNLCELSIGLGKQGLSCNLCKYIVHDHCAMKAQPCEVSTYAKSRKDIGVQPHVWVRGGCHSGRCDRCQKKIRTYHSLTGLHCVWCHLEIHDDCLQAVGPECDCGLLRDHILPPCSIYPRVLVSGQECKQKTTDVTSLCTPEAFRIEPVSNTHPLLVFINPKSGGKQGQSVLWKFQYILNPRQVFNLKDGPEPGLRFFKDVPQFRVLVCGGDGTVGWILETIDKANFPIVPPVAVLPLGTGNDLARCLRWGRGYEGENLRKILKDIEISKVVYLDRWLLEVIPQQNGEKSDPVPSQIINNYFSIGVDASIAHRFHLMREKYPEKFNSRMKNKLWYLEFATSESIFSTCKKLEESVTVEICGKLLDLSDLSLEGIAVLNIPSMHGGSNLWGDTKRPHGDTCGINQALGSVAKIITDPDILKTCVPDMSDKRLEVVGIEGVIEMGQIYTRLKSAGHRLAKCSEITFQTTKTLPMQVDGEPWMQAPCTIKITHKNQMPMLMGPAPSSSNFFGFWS
Experimental: as §6
Due to the lipophilic nature of azetidines, we also tested TH071 on recombinant mammalian DGKα and enriched for four peptides that were unique to this azetidine compound. Of these sites, two are located adjacent to the active site, one within the catalytic domain, and another in the zinc finger domain. […] DGKs […] the interconversion of diacylglycerol (DAG) to phosphatidic acid (PA). […]

DGK [8] = test: Gel labeling of second DGK isoform by probe; assay type: binding; settings: gel assay
Experimental: as §2, §1

T1 sequence (P51556 whole entry): as above

decrease of DGKα activity (recombinant rat DGKα [1]; 1 μM sulfur donor): 30%
decrease of DGKα activity (recombinant rat DGKα [1]; 10 μM sulfur donor): 40%
effect of sulfur donor on TH071 labeling of DGKα (competitive ABPP) (recombinant rat DGKα [2]): these results were recapitulated
SMILES: [Na+].[Na+].[S-]SS[S-] [Na2S4]
effect on DGK activity in substrate assay (DGK [3]): showed no effect

product formation between azetidine and cysteine [4]: no change was observed
product formation between azetidine and glutathione (ring-opening) [5]: had bound to the cysteine of glutathione
SMILES: C#CCCCN1CC(c2nc3ccccc3[nH]2)C1 [RLM207]

SMILES: C#CCCCN1CC(c2ccccc2F)C1 [TH071]
azetidine reactivity / protein binding (probe labeling) in gel assay [6]: most reactive; also recorded: could not recover probe labeling; also recorded: displayed the best reactivity
enrichment of azetidine-bound peptides (HEK lysates; 25 μM, HEK lysates): not optimal
identification of azetidine-tagged proteins by LC-MS/MS (HEK lysates; 0.5 mM TH071, 3 hrs, HEK lysates): identified multiple azetidine-tagged proteins
residue type modified by the azetidine compound (HEK lysates; MS2 site localisation, FIG. 5): binds to cysteine residues
number of enriched peptides unique to the azetidine compound [7]: four
probe labeling of DGK protein (DGK [8]): failed to label the protein

SMILES: C#CCCCN1CCC1c1cccc(F)c1 (stereo not shown) [TH073]
azetidine reactivity / protein binding (probe labeling) in gel assay [6]: could not recover probe labeling

SMILES: C#CCCCN1CC(c2ccc(F)cc2)C1 [TH069]
azetidine reactivity / protein binding (probe labeling) in gel assay [6]: most reactive

SMILES: C#CCCCN1CC(c2cccc(F)c2)C1 [TH070]
azetidine reactivity / protein binding (probe labeling) in gel assay [6]: least reactive

SMILES: C#CCCCN1CCC1c1ccccc1F (stereo not shown) [TH074]
azetidine reactivity / protein binding (probe labeling) in gel assay [6]: could not recover probe labeling

From US12624020B2, “Compositions and methods for preparing and using azetidines” (University of Virginia Patent Foundation, priority 2018, dated 2026)
